We go through 26 compounds from US20260256751A1, “COMBINATION OF BETA-2-ADRENERGIC RECEPTOR AGONISTS AND GLP-1 RECEPTOR AGONISTS FOR USE IN TREATING HYPERGLYCAEMIA” (ATROGI AB, priority 2023, published 2026).

Structures are written as SMILES.

The subject of assay [1] is differentiated L6-myotubes. Briefly: Glucose uptake screen (Biological example 1 of WO 2019/053427). The format is cell-based. Particulars: compound at 10 μM, activity relative to isoproterenol at 10 μM, read-out: Biological example 1 of WO 2019/053427 (GU). Summed up: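 Rat L6 myoblasts were differentiated into myotubes over 7 days in 2% FBS, then serum-starved overnight. Cells were stimulated with 1×10^−5 M compound plus β2 antagonist ICI-118551 for 1 h 40 min and re-dosed for 20 min in glucose-free medium. Uptake of 50 nM ^3H-2-deoxyglucose over 10 min was counted after NaOH lysis.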

Assay [2] deals with differentiated L6-myotubes. Briefly: cAMP production relative to isoprenaline (Biological example 2 of WO 2019/053427). The format is cell-based. The note with it: 0.25 h, compound at 10 μM, activity relative to isoproterenol at 10 μM. Summed up: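 Differentiated L6 myotubes stimulated 15 min with test compound or isoprenaline, each at final 1×10^−5 M, in HBSS with 1% BSA, 5 mM HEPES, 1 mM IBMX, pH 7.4. cAMP production by the compound expressed relative to that induced by the same concentration of isoprenaline.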

Take `CC(=O)N(Cc1ccccc1)[C@H]1CC[C@H](C[C@@H]2CC[C@H]([C@H](O)c3cccc(F)c3)N2)CC1` [Compound 482, N-[(1S,4r)-4-({(2S,5R)-5-[(R)-(m-fluorophenyl)hydroxymethyl]-2-pyrrolidinyl}methyl)cyclohexyl]-N-benzylacetamide]: the Emax at 10 µM in assay [1] and in assay [2] was below 25% in each case.
Regarding `CC(=O)N[C@H]1CC[C@@H](C[C@@H]2CC[C@H]([C@@H](O)c3cccc(F)c3)N2)CC1` [Compound 483, N-[(1R,4s)-4-({(2S,5R)-5-[(S)-(m-fluorophenyl)hydroxymethyl]-2-pyrrolidinyl}methyl)cyclohexyl]acetamide], the Emax at 10 µM in assay [1] and in assay [2] was below 25% each time.
As to `CC(=O)N[C@H]1CC[C@@H](C[C@@H]2CC[C@H]([C@H](O)c3cccc(F)c3)N2)CC1` [Compound 484, N-[(1R,4s)-4-({(2S,5R)-5-[(R)-(m-fluorophenyl)hydroxymethyl]-2-pyrrolidinyl}methyl)cyclohexyl]acetamide], the Emax at 10 µM in assay [1] is 50 to 75%; in assay [2] it was below 25%.
In the same order, the values of `CC(=O)N[C@H]1CC[C@H](C[C@@H]2CC[C@H]([C@H](O)c3cccc(F)c3)N2)CC1` [Compound 485, N-[(1S,4r)-4-({(2S,5R)-5-[(R)-(m-fluorophenyl)hydroxymethyl]-2-pyrrolidinyl}methyl)cyclohexyl]acetamide] are 50 to 75% and below 25%.
For the compound `CC(=O)N[C@H]1CC[C@H](C[C@@H]2CC[C@H]([C@@H](O)c3cccc(F)c3)N2)CC1` [Compound 486, N-[(1S,4r)-4-({(2S,5R)-5-[(S)-(m-fluorophenyl)hydroxymethyl]-2-pyrrolidinyl}methyl)cyclohexyl]acetamide], the values for the Emax at 10 µM in assay [1] and in assay [2] were 50 to 75% and below 25%, respectively.
In the same order, the values of `O[C@@H](c1cccc(F)c1)C12CCC(COCc3ccc(OC(F)(F)F)cc3)(CC1)N2` [Compound 487, (S)-(m-fluorophenyl)(4-{[(p-trifluoromethoxyphenyl)methoxy]methyl}-7-azabicylco[2.2.1]hept-1-yl)methanol] are below 25% and below 25%.
In the same order, the values of `O[C@H](c1cccc(F)c1)C12CCC(COCc3ccc(OC(F)(F)F)cc3)(CC1)N2` [Compound 488, (R)-(m-fluorophenyl)(4-{[(p-trifluoromethoxyphenyl)methoxy]methyl}-7-azabicyclo[2.2.1]hept-1-yl)methanol] are below 25% and below 25%.
For the compound `O[C@@H](c1cncc(F)c1)C12CCC(COCc3ccc(OC(F)(F)F)cc3)(CC1)N2` [Compound 489, (S)-(5-fluoro-3-pyridyl)(4-{[(p-trifluoromethoxyphenyl)methoxy]methyl}-7-azabicyclo[2.2.1]hept-1-yl)methanol], the Emax at 10 µM in assay [1] and in assay [2] was below 25% each time.
Regarding `O[C@H](c1cncc(F)c1)C12CCC(COCc3ccc(OC(F)(F)F)cc3)(CC1)N2` [Compound 490, (R)-(5-fluoro-3-pyridyl)(4-{[(p-trifluoromethoxyphenyl)methoxy]methyl}-7-azabicyclo[2.2.1]hept-1-yl)methanol], the values for the Emax at 10 µM in assay [1] and in assay [2] were 50 to 75% and below 25%, respectively.
In the same order, the values of `CC(=O)N(C)[C@H]1CC[C@H](CC(C)(C)NC[C@H](O)c2cccc(F)c2)CC1` [Compound 491, N-[(1R,4r)-4-{2-[(R)-2-(m-fluorophenyl)-2-hydroxyethylamino]-2-methylpropyl}cyclohexyl]-N-methylacetamide] are above 75% and below 25%.
`CC(=O)N(C)[C@H]1CC[C@@H](CC(C)(C)NC[C@H](O)c2cccc(F)c2)CC1` [Compound 492, N-[(1S,4s)-4-{2-[(R)-2-(m-fluorophenyl)-2-hydroxyethylamino]-2-methylpropyl}cyclohexyl]-N-methylacetamide]: the Emax at 10 µM in assay [1] was 25 to 50%; in assay [2], below 25%.
On to `CC(C)(C[C@H]1CC[C@@H](NS(=O)(=O)C(F)(F)F)CC1)NC[C@H](O)c1cccc(F)c1` [Compound 493, (R)-2-{1,1-dimethyl-2-[(1s,4S)-4-(trifluoromesylamino)cyclohexyl]ethylamino}-1-(m-fluorophenyl)-1-ethanol], for which the Emax at 10 µM is 25 to 50% in assay [1] and below 25% in assay [2].
In the same order, the values of `CC(C)(C[C@H]1CC[C@@H](NS(=O)(=O)C2CC2)CC1)NC[C@H](O)c1cccc(F)c1` [Compound 494, (R)-2-{1,1-dimethyl-2-[(1s,4S)-4-(cyclopropylsuflonylamino)cyclohexyl]ethylamino}-1-(m-fluorophenyl)-1-ethanol] are 25 to 50% and below 25%.
In the same order, the values of `CNS(=O)(=O)[C@H]1CC[C@@H](CC(C)(C)NC[C@H](O)c2cncc(F)c2)CC1` [Compound 495, (R)-2-{1,1-dimethyl-2-[(1s,4S)-4-(methylaminosulfonyl)cyclohexyl]ethylamino}-1-(5-fluoro-3-pyridyl)-1-ethanol] are 50 to 75% and below 25%.
In the same order, the values of `CC(C)(C[C@H]1CC[C@H](NS(=O)(=O)C2CC2)CC1)NC[C@H](O)c1cccc(F)c1` [Compound 496, (R)-2-{1,1-dimethyl-2-[(1r,4R)-4-(cyclopropylsulfonylamino)cyclohexyl]ethylamino}-1-(m-fluorophenyl)-1-ethanol] are 50 to 75% and below 25%.
On to `CCCS(=O)(=O)N[C@H]1CC[C@@H](CC(C)(C)NC[C@H](O)c2cccc(F)c2)CC1` [Compound 497, (R)-2-{1,1-dimethyl-2-[(1s,4S)-4-(propylsulfonylamino)cyclohexyl]ethylamino}-1-(m-fluorophenyl)-1-ethanol], for which the Emax at 10 µM in assay [1] is 50 to 75%; in assay [2], below 25%.
On to `CN([C@H]1CC[C@@H](CC(C)(C)NC[C@H](O)c2cccc(F)c2)CC1)S(C)(=O)=O` [Compound 498, (R)-2-{1,1-dimethyl-2-[(1s,4S)-4-(N-mesyl-N-methylamino)cyclohexyl]ethylamino}-1-(m-fluorophenyl)-1-ethanol], for which the Emax at 10 µM in assay [1] is 25 to 50%; in assay [2], below 25%.
For the compound `CN([C@H]1CC[C@H](CC(C)(C)NC[C@H](O)c2cccc(F)c2)CC1)S(C)(=O)=O` [Compound 499, (R)-2-{1,1-dimethyl-2-[(1r,4R)-4-(N-mesyl-N-methylamino)cyclohexyl]ethylamino}-1-(m-fluorophenyl)-1-ethanol], the figures for the Emax at 10 µM in assay [1] and in assay [2] were 25 to 50% and below 25%, respectively.
As to `O[C@@H](c1cccc(F)c1)C12CCC(Cc3ccc(OC(F)(F)F)cc3)(CC1)N2` [Compound 500], the Emax at 10 µM in assay [1] and in assay [2] was below 25% in each case.
`O[C@H](c1cccc(F)c1)C12CCC(Cc3ccc(OC(F)(F)F)cc3)(CC1)N2` [Compound 501, (R)-(m-fluorophenyl){4-[(p-trifluoromethoxyphenyl)methyl]-7-azabicyclo[2.2.1]hept-1-yl}methanol]: the Emax at 10 µM in assay [1] and in assay [2] was below 25% each time.
In the case of `CS(=O)(=O)N(Cc1ccccc1)[C@H]1CC[C@H](C[C@@H]2CC[C@H]([C@H](O)c3cccc(F)c3)N2)CC1` [Compound 502, (R)-[(2R,5S)-5-({(1r,4S)-4-[(benzyl)-N-mesylamino]cyclohexyl}methyl)-2-pyrrolidinyl](m-fluorophenyl)methanol], the Emax at 10 µM in assay [1] and in assay [2] was below 25% in each case.
Take `CS(=O)(=O)N(Cc1ccccc1)[C@H]1CC[C@H](C[C@@H]2CC[C@H]([C@@H](O)c3cccc(F)c3)N2)CC1` [Compound 503, (S)-[(2R,5S)-5-({(1r,4S)-4-[(benzyl)-N-mesylamino]cyclohexyl}methyl)-2-pyrrolidinyl](m-fluorophenyl)methanol]: the Emax at 10 µM in assay [1] and in assay [2] was below 25% each time.
With `CS(=O)(=O)N[C@H]1CC[C@H](C[C@@H]2CC[C@H]([C@H](O)c3cccc(F)c3)N2)CC1` [Compound 504, (R)-[(2R,5S)-5-{[(1r,4S)-4-(mesylamino)cyclohexyl]methyl}-2-pyrrolidinyl](m-fluorophenyl)methanol], the Emax at 10 µM was 50 to 75% in assay [1] and below 25% in assay [2].
As for `CS(=O)(=O)N[C@H]1CC[C@H](C[C@@H]2CC[C@H]([C@@H](O)c3cccc(F)c3)N2)CC1` [Compound 505, (S)-[(2R,5S)-5-{[(1r,4S)-4-(mesylamino)cyclohexyl]methyl}-2-pyrrolidinyl](m-fluorophenyl)methanol], the Emax at 10 µM in assay [1] and in assay [2] was below 25% throughout.
Turning to `CC(=O)N(C)[C@H]1CC[C@H](CC(C)(C)NC[C@H](O)c2cncc(F)c2)CC1` [Compound 506, N-[(1R,4r)-4-{2-[(R)-2-(5-fluoro-3-pyridyl)-2-hydroxyethylamino]-2-methylpropyl}cyclohexyl]-N-methylacetamide], the results for the Emax at 10 µM in assay [1] and in assay [2] were above 75% and 25 to 50%, respectively.
Turning to `CC(=O)N(C)[C@H]1CC[C@@H](CC(C)(C)NC[C@H](O)c2cncc(F)c2)CC1` [Compound 507, N-[(1S,4s)-4-{2-[(R)-2-(5-fluoro-3-pyridyl)-2-hdyroxyethylamino]-2-methylpropyl}cyclohexyl]-n-methylacetamide], the Emax at 10 µM is 50 to 75% in assay [1] and below 25% in assay [2].
